In the assay the target is T1, Full length human TNNI3K (hTNNI3K) (Homo sapiens, UniProt Q59H18).
T1 construct: His-MBP-TEV-Full length human TNNI3K (hTNNI3K); His (N); MBP (N); TEV cleavage site (N); made in house; host or cells: baculovirus system (printed 'Baculokinase system')
T1 sequence (Q59H18 1-835): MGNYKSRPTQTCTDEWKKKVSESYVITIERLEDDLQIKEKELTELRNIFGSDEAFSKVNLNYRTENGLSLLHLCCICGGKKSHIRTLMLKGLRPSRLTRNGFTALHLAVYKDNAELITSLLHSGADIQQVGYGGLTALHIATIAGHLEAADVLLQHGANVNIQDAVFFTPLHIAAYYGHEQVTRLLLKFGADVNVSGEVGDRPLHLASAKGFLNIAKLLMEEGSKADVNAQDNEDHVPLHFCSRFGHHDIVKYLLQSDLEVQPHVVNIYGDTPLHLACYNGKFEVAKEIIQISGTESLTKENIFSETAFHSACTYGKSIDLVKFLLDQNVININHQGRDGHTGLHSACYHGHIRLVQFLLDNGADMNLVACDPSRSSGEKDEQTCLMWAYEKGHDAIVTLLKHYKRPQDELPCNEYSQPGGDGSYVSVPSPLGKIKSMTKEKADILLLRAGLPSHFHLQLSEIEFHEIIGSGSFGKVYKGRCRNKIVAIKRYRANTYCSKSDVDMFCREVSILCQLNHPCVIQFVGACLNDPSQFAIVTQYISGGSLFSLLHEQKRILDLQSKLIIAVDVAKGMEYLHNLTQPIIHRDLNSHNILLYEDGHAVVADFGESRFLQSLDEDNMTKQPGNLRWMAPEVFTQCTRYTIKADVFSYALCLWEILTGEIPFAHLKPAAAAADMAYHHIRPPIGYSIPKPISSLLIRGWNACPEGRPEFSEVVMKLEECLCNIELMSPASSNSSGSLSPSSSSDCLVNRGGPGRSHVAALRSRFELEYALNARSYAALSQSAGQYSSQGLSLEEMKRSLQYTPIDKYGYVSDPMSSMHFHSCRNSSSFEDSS
The experiment in a line: Fluorescent polarization assay of compound inhibition on hTNNI3K ATP binding (Biological Assay Method I). To be noted: displacement of fluorescent ligand from hTNNI3K ATP binding pocket; mean of a minimum of 2 experiments; read-out: pXC50 (the source's name) (converted).

Regarding `CNS(=O)(=O)c1ccc(N(C)C)c(Nc2ncnc3ccc(N)cc23)c1` [Example 84, 3-((6-aminoquinazolin-4-yl)amino)-4-(dimethylamino)-N-methylbenzenesulfonamide], the IC50 was 10 to 100 nM.
As for `CNS(=O)(=O)c1ccc(N(C)C)c(Nc2ncnc3cc(N)ccc23)c1` [Example 85, 3-((7-aminoquinazolin-4-yl)amino)-4-(dimethylamino)-N-methylbenzenesulfonamide], the IC50 was 10 to 100 nM.
As to `CNS(=O)(=O)c1ccc(N(C)C)c(Nc2ncnc3ccc(N(C)C)cc23)c1` [Example 86, 4-(dimethylamino)-3-((6-(dimethylamino)quinazolin-4-yl)amino)-N-methylbenzenesulfonamide bis(trifluoroacetate)], the IC50 was 10 to 100 nM.
The value for `CNc1ccc2ncnc(Nc3cc(S(=O)(=O)NC)ccc3N(C)C)c2c1` [Example 87, 4-(dimethylamino)-N-methyl-3-((6-(methylamino)quinazolin-4-yl)amino)benzenesulfonamide bis(trifluoroacetate)] was 10 to 100 nM; that for `CNc1ccc2c(Nc3cc(S(=O)(=O)NC)ccc3N(C)C)ncnc2c1` [Example 88, 4-(dimethylamino)-N-methyl-3-((7-(methylamino)quinazolin-4-yl)amino) benzenesulfonamide] was 10 to 100 nM.

For the origin of these results see patent publication US8859571B2, “Quinazoline compounds” (GlaxoSmithKline LLC, priority 2009, dated 2014).
